Results on twelve compounds are retold here after patent publication US5606061A, “Thioformamide derivatives” (Eisai Co., Ltd., priority 1991, dated 1997).

In assay [1] the test system is right ventricular papillary muscle of guinea pig. Kind of assay: Activity on the action potential duration of the right ventricular papillary muscle of guinea pig (potassium channel activating effect). The class given is cell-based, guinea pig (Hartley). The following applies: Cavia porcellus, 0.5 h, 1 Hz, 36 ±0.5° C., 30 minutes each concentration, read-out: Concn. at which APD90 is shortened to 50% of the initial one IC50 (converted). The source says:
(2) Activity on the action potential duration of the right ventricular papillary muscle of guinea pig
The compounds of the present invention were examined for the potassium channel activating effect by the use of the right ventricular papillary muscle of a guinea pig.
An action potential duration at 90% repolarization (hereinafter abbreviated to "APD90 ") reflects an outward potassium current. A compound having the potassium channel activating effect can activate the outward potassium channel to shorten the APD90 (see Proc. Natl. Acad. Sci., USA, 85, 8860 to 8864 (1988)).
A Hartley male guinea pig having a weight of 300 to 500 g was used. This guinea pig was killed by bleeding and the papillary muscle was extirpated from the right ventricle of the guinea pig and fixed in the Organbath. The surface of the papillary muscle was washed with Tyrode's solution at 36 ±0.5° C. through which an oxygen/carbon dioxide mixture was passed. The resulting specimen was stimulated by applying a rectangular wave pulse of 1 Hz to record the action potential by the glass microelectrode method.
After the action potential had been stabilized, the specimen was washed with Tyrode's solutions containing a test compound each for 30 minutes to determine the dose-response curve.

Another assay relates to rat aorta. Kind of assay: Vasohypotonic activity on rat aorta specimen (inhibition of KCl-induced tension). The class given is cell-based, rat (SD). The following applies: rat aorta spiral specimen, 20 mM KCl, 30° C., KCl tension = 100%. How it is done: (1) Vasohypotonic activity on rat aorta specimen
The compounds of the present invention were examined for vasohypotonic activity by the use of the aorta extirpated from a rat.
A pectoral aorta was speedily extirpated from an SD male rat having a weight of 250 to 400 g and a spiral specimen was prepared from the aorta. This specimen was vertically suspended in the Organbath which was filled with the Krebs-Henseleit solution at 30° C. and through which a gas mixture comprising 95% of oxygen and 5% of carbon dioxide was passed. The change in the tension of the specimen was isotonically determined under a load of 1 g.
After the tension of the specimen has been stabilized, 20 mM of KCl was added to the bath. After the generated tension had been stabilized, a test compound was cumulatively added to the Organbath to determine the relaxation.
The extent of the relaxation, i.e., the inhibitory activity against the generation of tension was determined by taking the tension generated by the addition of KCl as 100% to calculate the IC50 value.

The test system of assay [2] is spontaneously hypertensive rats (SHR). Kind of assay: Hypotensive activity on spontaneously hypertensive rat in waking state. Type of assay: in vivo. The following applies: oral, 2 hours after administration, before administration = 100, control 93.3 ± 4.0, read-out: Blood pressure. How it is done: (4) Hypotensive activity on spontaneously hypertensive rat in waking state
The compounds of the present invention were examined for hypotensive activity by orally administrating them to spontaneously hypertensive rats (SHR).
The systolic pressure of a spontaneously hypertensive male rat (weight: 260 to 360 g) which had been fasted for 12 hours was bloodlessly determined by the tail cuff method. Each drug was suspended in a 0.5% aqueous solution of methylcellulose and orally administered in a dose of 1 mg/kg. only the solvent was administered to control rats.
The blood pressures of the rats after 2 hours from the administration are given in the Table 1 with the blood pressures before the administration being taking as 100.

The subject of assay [3] is anesthetized thoracotomized dog. In words: Hypotensive activity and coronary bloodflow increasing activity on anesthetized thoracotomized dog. The class given is in vivo, dog (crossbred). The following applies: Canis lupus familiaris, intravenous, 3 μg/kg. From the text:
(3) Hypotensive activity and coronary bloodflow increasing activity on anesthetized thoracotomized dog
The compounds of the present invention were examined for hypotensive activity and coronary bloodflow increasing activity by the use of an anesthetized thoracotomized dog.
A crossbred adult dog was used. This dog was thoracotomized under inhalation anesthesia with an enflurane/laughing gas. The probe of an electromagnetic flowmeter was set on the ramus circumflexes of the left coronary artery to determine the coronary bloodflow. The arterial pressure was determined by making the tip of a catheter-tipped pressure transducer indwell in the arcus aortae.
Each test compound was intravenously administered in a dose of 3 μg/kg through a catheter inserted into the femoral vein.
The hypotensive activity and coronary bloodflow increasing activity of each test compound are given in Table 1 as the changes of the blood pressure and coronary bloodflow based on those before the administration of the compound.

The mark [4] stands for this setting: change of blood pressure vs before administration, read-out: Change (%) hypotensive activity.
Where [5] appears, read: change of coronary bloodflow vs before administration, read-out: Change (%) coronary blood-flow increasing activity.

Where two headings read alike, the source gives them in different places.

Turning to `CNC(=S)C1(c2ccc3nccn3c2)CCCCC1=O` (single isomer, unassigned; (-)) [Compound 1, (-)-1-(imidazo[1,2-a]pyridin-6-yl)-N-methyl-2-oxocyclohexanecarbothioamide], the IC50 in assay [1] is 2.63 µM; with rat aorta it was 0.0186 µM. For the same compound, the response vs control in vivo at 1 mg/kg in assay [2] is 51.6 ± 5.1%. The change in vivo at 0.003 mg/kg in assay [3] (setting [4]) was -22.1%; in assay [3] (setting [5]), 78.6%.
Taken in the same sequence, the figures for `CNC(=S)C1(c2ccc3nc(C)cn3c2)CCCCC1=O` (single isomer, unassigned; (-)) [Compound 3, (-)-N-methyl-1-(2-methylimidazo-[1,2-a]pyridin-6-yl)-2-oxocyclohexanecarbothioamide] were 0.759 µM, 0.00617 µM, 45.9 ± 3.9%, -27% and 198%.
The compound `CNC(=S)C1(c2ccc3nccn3c2)CCCCC1OC(=O)c1ccccc1` (single isomer, unassigned; (-)) [Compound 4, (-)-2-benzoyloxy-1-(imidazo[1,2-a]pyridin-6-yl)-N-methylcyclohexanecarbothioamide] gave an IC50 in the assay with rat aorta of 0.000575 µM. In addition, the change in vivo at 0.003 mg/kg in assay [3] (setting [4]) is -26.6%; in assay [3] (setting [5]), 312%.
`CNC(=S)C1(c2ccc3nc(C(F)(F)F)cn3c2)CCCCC1=O` (single isomer, unassigned; (-)) [Compound 12, (-)-1-(2-trifluoromethylimidazo-[1,2-a]pyridin-6-yl)-N-methyl-2-oxocyclohexanecarbothioamide]: the IC50 in the assay on rat aorta is 0.02 µM. Also, the change in vivo at 0.003 mg/kg in assay [3] (setting [4]) is -16.5%; in assay [3] (setting [5]), 86.5%.
For the compound `CNC(=S)C1(c2ccc3nc(C)cn3c2)CCCC[S+]1[O-]` (single isomer, unassigned; (-)) [Compound 13, (-)-2-(2-methylimidazo-[1,2-a]pyridin-6-yl)-N-methyltetrahydrothiopyran-2-carbonthioamide 1-oxide], in the assay with rat aorta, it took 0.02 µM to reach half-maximal inhibition (IC50). For the same compound, the change in vivo at 0.003 mg/kg in assay [3] (setting [4]) is -30%; in assay [3] (setting [5]) it was 228%.
Consider `CNC(=S)C1(c2ccc3nccn3c2)CCCCC1OCc1ccccc1` (stereo not drawn) [Compound 5, 2-benzyloxy-1-(imidazo[1,2-a]pyridin-6-yl)-N-methylcyclohexanecarbothioamide], for which the IC50 in assay [1] was 0.00891 µM; with rat aorta, 0.000355 µM. Also, the change in vivo at 0.003 mg/kg in assay [3] (setting [4]) is -8.1%; in assay [3] (setting [5]), 196%.
For `CNC(=S)C1(c2ccc3nccn3c2)CCCCC1=NOCc1ccccc1` (stereo not drawn) [Compound 6, anti-2-benzyloxyimino-1-(imidazo[1,2-a]pyridin-6-yl)-N-methylcyclohexanecarbothioamide], the IC50 was 0.204 µM in assay [1] and 0.00191 µM with rat aorta. For the same compound, the response vs control in vivo at 1 mg/kg in assay [2] worked out at 59.3 ± 6.9%. In addition, the results for the change in vivo at 0.003 mg/kg in assay [3] (setting [4]) and in assay [3] (setting [5]) were -25.2% and 67.5%, respectively.
In the assay on rat aorta, `CNC(=S)C1(c2ccc3nccn3c2)CCCCC1NCc1ccccc1` (stereo not drawn) [Compound 7] had an IC50 of 0.00178 µM. Also, the response vs control in vivo at 1 mg/kg in assay [2] came out at 87.9 ± 0.1%. Further, the change in vivo at 0.003 mg/kg in assay [3] (setting [4]) was -7.3%; in assay [3] (setting [5]), 22.8%.
`CNC(=S)C1(c2ccc3nccn3c2)CCCC[S+]1[O-]` (stereo not drawn) [Compound 8, 2-(imidazo[1,2-a]pyridin-6-yl)-N-methyltetrahydrothiopyran-2-carbothioamide1-oxide]: it took 0.055 µM to reach half-maximal inhibition in the assay with rat aorta (IC50). For the same compound, in assay [2], the response vs control in vivo at 1 mg/kg worked out at 62 ± 6.5%. For the same compound, the change in vivo at 0.003 mg/kg in assay [3] (setting [4]) was -10.5%; in assay [3] (setting [5]), 70.7%.
Regarding `CNC(=S)C1(n2cnc([N+](=O)[O-])c2)CCCCC1OC(=O)c1ccccc1` (stereo not drawn) [Compound 9, 2-benzoyloxy-N-methyl-1-(4-nitroimidazol-1yl)cyclohexanecarbothioamide], the IC50 in assay [1] was 0.479 µM; with rat aorta it was 0.011 µM. Moreover, the response vs control in vivo at 1 mg/kg in assay [2] was determined as 62.4 ± 3.7%. Further, the change in vivo at 0.003 mg/kg was -14.9% in assay [3] (setting [4]) and 131% in assay [3] (setting [5]).
For `CNC(=S)C1(n2cnc([N+](=O)[O-])c2)CCCCC1OCc1ccccc1` (stereo not drawn) [Compound 10, 2-benzyloxy-N-methyl-1-(4-nitroimidazol-1yl)cyclohexanecarbothioamide], in that order: 0.0513 µM, 0.00049 µM, 58.8 ± 5.7%, -16.3% and 169%.
`CNC(=S)C1(n2cnc([N+](=O)[O-])c2)CCCCC1=NOCc1ccccc1` (stereo not drawn) [Compound 11, anti-2-benzyloxyimino-N-methyl-1-(4-nitroimidazol-1-yl)cyclohexanecarbothioamide]: the IC50 in assay [1] was 0.148 µM; in the assay on rat aorta, 0.00055 µM. In assay [2], the response vs control in vivo at 1 mg/kg came to 72.1 ± 4.5%. For the same compound, the change in vivo at 0.003 mg/kg is -28.5% in assay [3] (setting [4]) and 152% in assay [3] (setting [5]).

A word on the IC50: it is the concentration needed to halve the response being measured.
